According to patent US10457679B2, “Imidazo[4,5-c]quinolin-2-one compounds and their use in treating cancer” (AstraZeneca AB, priority 2015, dated 2019):

The compounds below were run against T1, mTOR (Homo sapiens, UniProt P42345) (assay: Assay d) mTOR cellular potency (phospho-AKT Ser473 in MDA-MB-468 cells)). Settings: pAKT Ser473, Protocol A (§); read-out: Assay d) mTOR Cell IC50.
T1 construct: endogenous in cells; host or cells: MDA-MB-468 cells (ATCC HTB 132)
Assay type: cell-based
Protocol: Assay d): mTOR Cellular Potency
This assay was used to measure mTOR inhibition in cells. The aim of the phospho-AKT cell based mechanism of action assay using the Acumen Explorer is to identify inhibitors of either PI3Kα or mTOR-Rictor (Rapamycin insensitive companion of mTOR). This is measured by any decrease in the phosphorylation of the Akt protein at Ser473 (AKT lies downstream of PI3Kα in the signal transduction pathway) in the MDA-MB-468 cells following treatment with compound. Method Details:
MDA-MB-468 cells (human breast adenocarcinoma #ATCC HTB 132) were seeded at 1500 cells/well in 40 μl of DMEM containing 10% FBS and 1% glutamine into Greiner 384 well black flat-bottomed plates. Cell plates were incubated for 18 h in a 37° C. incubator before dosing with compounds of Formula (I) in 100% DMSO using acoustic dispensing. Compounds were dosed in a 12 point concentration range into a randomised plate map. Control wells were generated either by dosing of 100% DMSO (max signal) or addition of a reference compound (a PI3K-β inhibitor) that completely eliminated the pAKT signal (min control). Compounds were then tested by one of two assay protocols A or B:
Plates were incubated at 37° C. for 2 h; cells were then fixed by the addition of 10 μl of a 3.7% formaldehyde solution. After 30 minutes the plates were washed with PBS using a Tecan PW384 plate washer. Wells were blocked and cells permeabilised with the addition of 40 μl of PBS containing 0.5% Tween20 and 1% Marvel™ (dried milk powder) and incubated for 60 minutes at r.t. The plates were washed with PBS containing 0.5% (v/v) Tween20 and 20 μl rabbit anti-phospho AKT Ser473 (Cell Signalling Technologies, #3787) in same PBS-Tween+1% Marvel™ was added and incubated overnight at 4° C.
Plates were washed 3 times with PBS+0.05% Tween 20 using a Tecan PW384. 20 μl of secondary antibody Alexa Fluor 488 anti-Rabbit (Molecular Probes, #A11008) diluted in PBS+0.05% Tween20 containing 1% Marvel™ was added to each well and incubated for 1 h at r.t. Plates were washed three times as before then 20 μl PBS added to each well and plates sealed with a black plate sealer.
The plates were read on an Acumen plate reader as soon as possible, measuring green fluorescence after excitation with 488 nm laser. Using this system IC50 values were generated and quality of plates was determined by control wells. Reference compounds were run each time to monitor assay performance.
The cell plates were then incubated for 2 h at 37° C. before being fixed by the addition of 20 μl 3.7% formaldehyde in PBS/A (1.2% final concentration), followed by a 30 minute room temperature incubation, and then a 2× wash with 150 μl PBS/A using a BioTek ELx406 platewasher. Cells were permeabilised and blocked with 20 μl of assay buffer (0.1% Triton X-100 in PBS/A+1% BSA) for 1 h at room temperature, and then washed 1× with 50 μl PBS/A. Primary phospho-AKT (Ser473) D9E XP® rabbit monoclonal antibody (#4060, Cell Signaling Technology) was diluted 1:200 in assay buffer, 20 μl added per well, and plates were incubated at 4° C. overnight. Cell plates were washed 3× with 200 μl PBS/T, then 20 μl 1:750 dilution in assay buffer of Alexa Fluor® 488 goat anti-rabbit IgG secondary antibody (#A11008, Molecular Probes, Life Technologies), with a 1:5000 dilution of Hoechst 33342, was added per well. Following a 1 h incubation at room temperature, plates were washed 3× with 200 μl PBS/T, and 40 μl PBS w/o Ca, Mg and Na Bicarb (Gibco #14190-094) was added per well.
Stained cell plates were covered with black seals, and then read on the Cell Insight imaging platform (Thermo Scientific), with a 10× objective. The primary channel (Hoechst blue fluorescence 405 nM, BGRFR_386_23) was used to Autofocus and to count number of events (this provided information about cytotoxicity of the compounds tested). The secondary channel (Green 488 nM, BGRFR_485_20) measured pAKT staining. […]

| SMILES | IC50 |
| --- | --- |
| CC(C)n1c(=O)n(C)c2cnc3ccc(-c4ccc(OCCCN(C)C)nc4)cc3c21 [Example 6, 8-[6-[3-(dimethylamino)propoxy]-3-pyridyl]-1-isopropyl-3-methyl-imidazo[4,5-c]quinolin-2-one] | > 3.12 µM |
| CC(C)n1c(=O)n(C)c2cnc3cc(F)c(-c4ccc(OCCCN5CCCC5)nc4)cc3c21 [Example 3, 7-Fluoro-1-isopropyl-3-methyl-8-[6-(3-pyrrolidin-1-ylpropoxy)-3-pyridyl]imidazo[4,5-c]quinolin-2-one] | > 20 µM |
| CC(C)n1c(=O)n(C)c2cnc3ccc(-c4ccc(OCCCN5CCCCC5)nc4F)cc3c21 [Example 9, 8-[2-Fluoro-6-[3-(1-piperidyl)propoxy]-3-pyridyl]-1-isopropyl-3-methyl-imidazo[4,5-c]quinolin-2-one] | > 5.19 µM |
| CC(C)n1c(=O)n(C)c2cnc3cc(F)c(-c4ccc(OCCCN5CCC5)nc4)cc3c21 [Example 4, 8-[6-[3-(azetidin-1-yl)propoxy]-3-pyridyl]-7-fluoro-1-isopropyl-3-methyl-imidazo[4,5-c]quinolin-2-one] | > 30 µM |
| CC(C)n1c(=O)n(C)c2cnc3cc(F)c(-c4ccc(OCCCN5CCC5)nc4F)cc3c21 [Example 16, 8-[6-[3-(azetidin-1-yl)propoxy]-2-fluoro-3-pyridyl]-7-fluoro-1-isopropyl-3-methyl-imidazo[4,5-c]quinolin-2-one] | > 29.9 µM |
| CC(C)n1c(=O)[nH]c2cnc3cc(F)c(-c4ccc(OCCCN5CCCCC5)nc4)cc3c21 [Example 18, 7-Fluoro-1-isopropyl-8-[6-[3-(1-piperidyl)propoxy]-3-pyridyl]-3H-imidazo[4,5-c]quinolin-2-one] | > 30 µM |

Same assay, conditions: pAKT Ser473, Protocol B (*); read-out: Assay d) mTOR Cell IC50

| SMILES | IC50 |
| --- | --- |
| CC(C)n1c(=O)n(C)c2cnc3ccc(-c4ccc(OCCCN5CCCC5)nc4)cc3c21 [Example 7, 1-isopropyl-3-methyl-8-[6-(3-pyrrolidin-1-ylpropoxy)-3-pyridyl]imidazo[4,5-c]quinolin-2-one] | 3.19 µM |
| CC(C)n1c(=O)n(C)c2cnc3ccc(-c4ccc(OCCCN5CCCC5)nc4F)cc3c21 [Example 12, 8-[2-fluoro-6-(3-pyrrolidin-1-ylpropoxy)-3-pyridyl]-1-isopropyl-3-methyl-imidazo[4,5-c]quinolin-2-one] | > 10 µM |
| CC(C)n1c(=O)n(C)c2cnc3cc(F)c(-c4ccc(OCCCN5CCCCC5)nc4F)cc3c21 [Example 14, 7-fluoro-8-[2-fluoro-6-[3-(1-piperidyl)propoxy]-3-pyridyl]-1-isopropyl-3-methyl-imidazo[4,5-c]quinolin-2-one] | > 30 µM |
| CC(C)n1c(=O)n(C)c2cnc3cc(F)c(-c4ccc(OCCCN5CCCC5)nc4F)cc3c21 [Example 13, 7-fluoro-8-[2-fluoro-6-(3-pyrrolidin-1-ylpropoxy)-3-pyridyl]-1-isopropyl-3-methyl-imidazo[4,5-c]quinolin-2-one] | > 30 µM |
| CC(C)n1c(=O)n(C)c2cnc3cc(F)c(-c4ccc(OCCC[N+]5([O-])CCCCC5)nc4)cc3c21 [Metabolite A, 7-Fluoro-1-isopropyl-3-methyl-8-[6-[3-(1-oxidopiperidin-1-ium-1-yl)propoxy]-3-pyridyl]imidazo[4,5-c]quinolin-2-one] | > 30 µM |
| CC(C)n1c(=O)n(C)c2cnc3ccc(-c4ccc(OCCCN5CCC5)nc4)cc3c21 [Example 8, 8-[6-[3-(Azetidin-1-yl)propoxy]-3-pyridyl]-1-isopropyl-3-methyl-imidazo[4,5-c]quinolin-2-one] | 0.405 µM |
| CC(C)n1c(=O)n(C)c2cnc3cc(F)c(-c4ccc(OCCCN5CCCCC5)nc4)cc3c21 [Example 2, 7-Fluoro-1-isopropyl-3-methyl-8-[6-[3-(1-piperidyl)propoxy]-3-pyridyl]imidazo[4,5-c]quinolin-2-one] | > 30 µM |
| CC(C)n1c(=O)n(C)c2cnc3ccc(-c4ccc(OCCCN(C)C)nc4F)cc3c21 [Example 10, 8-[6-[3-(dimethylamino)propoxy]-2-fluoro-3-pyridyl]-1-isopropyl-3-methyl-imidazo[4,5-c]quinolin-2-one] | 3.49 µM |
